Assay results reported in patent publication US9040518B2, “Chemical compounds” (GlaxoSmithKline LLC, priority 2010, dated 2015).
Structures can show the parent of a compound that is named as a salt.

Molecular target: ileal bile acid cotransporter (iBAT) (Homo sapiens (Human), UniProt Q12908)
Assay: Human iBAT inhibition: [3H]-taurocholate uptake into HEK293 cells expressing human iBAT
Assay type: cell-based
Details: HEK293 cells transduced with human iBAT Bacmam virus, 90 minutes at ambient temperature, mean of at least 2 datapoints

Chain of ileal bile acid cotransporter (iBAT) (Q12908 whole entry): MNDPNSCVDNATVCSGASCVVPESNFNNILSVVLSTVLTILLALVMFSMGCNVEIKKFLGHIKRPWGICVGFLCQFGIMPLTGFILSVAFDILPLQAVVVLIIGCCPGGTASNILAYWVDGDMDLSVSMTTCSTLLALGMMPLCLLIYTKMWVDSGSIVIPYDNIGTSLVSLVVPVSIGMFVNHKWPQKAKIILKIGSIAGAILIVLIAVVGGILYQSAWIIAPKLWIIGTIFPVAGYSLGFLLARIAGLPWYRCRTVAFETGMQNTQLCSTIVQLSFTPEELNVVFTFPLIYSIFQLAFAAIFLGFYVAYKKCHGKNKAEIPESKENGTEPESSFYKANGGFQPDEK

Structure (SMILES) | IC50 [nM]
CCCC[C@]1(CC)CS(=O)(=O)c2cc(CCCC(=O)O)c(OC)cc2[C@@H](c2ccccc2)N1 [Example 23, 4-[(3R,5R)-3-butyl-3-ethyl-7-(methyloxy)-1,1-dioxido-5-phenyl-2,3,4,5-tetrahydro-1,4-benzothiazepin-8-yl]butanoic acid trifluoroacetate salt] | 2
CCCC[C@]1(CC)CS(=O)(=O)c2cc(CCC(=O)NCCS(=O)(=O)O)c(OC)cc2[C@@H](c2ccccc2)N1 [Example 15, 2-({3-[(3R,5R)-3-butyl-3-ethyl-7-(methyloxy)-1,1-dioxido-5-phenyl-2,3,4,5-tetrahydro-1,4-benzothiazepin-8-yl]propanoyl}amino)ethanesulfonic acid] | 504
CCCC[C@]1(CC)CS(=O)(=O)c2cc(CNCC(=O)O)c(OC)cc2[C@@H](c2ccccc2)N1 [Example 25, N-{[(3R,5R)-3-butyl-3-ethyl-7-(methyloxy)-1,1-dioxido-5-phenyl-2,3,4,5-tetrahydro-1,4-benzothiazepin-8-yl]methyl}glycine] | 6
CCCC[C@]1(CC)CS(=O)(=O)c2cc(CN(C)CC(=O)O)c(OC)cc2[C@@H](c2ccccc2)N1 [Example 49, N-{[(3R,5R)-3-butyl-3-ethyl-7-(methyloxy)-1,1-dioxido-5-phenyl-2,3,4,5-tetrahydro-1,4-benzothiazepin-8-yl]methyl}-N-methylglycine ammonium salt] | 41
CCCC[C@]1(CC)CS(=O)(=O)c2cc(CCC(=O)NC(C)(C)C(=O)O)c(OC)cc2[C@@H](c2ccccc2)N1 [Example 16, N-{3-[(3R,5R)-3-butyl-3-ethyl-7-(methyloxy)-1,1-dioxido-5-phenyl-2,3,4,5-tetrahydro-1,4-benzothiazepin-8-yl]propanoyl}-2-methylalanine] | 731
CCCC[C@]1(CC)CS(=O)(=O)c2cc(CN(C)CCC(=O)O)c(OC)cc2[C@@H](c2ccccc2)N1 [Example 29, N-{[(3R,5R)-3-butyl-3-ethyl-7-(methyloxy)-1,1-dioxido-5-phenyl-2,3,4,5-tetrahydro-1,4-benzothiazepin-8-yl]methyl}-N-methyl-β-alanine trifluoroacetate salt] | 367
CCCC[C@]1(CC)CS(=O)(=O)c2cc(CNC(=O)CNCC(=O)O)c(OC)cc2[C@@H](c2ccccc2)N1 [Example 39, N-[2-({[(3R,5R)-3-butyl-3-ethyl-7-(methyloxy)-1,1-dioxido-5-phenyl-2,3,4,5-tetrahydro-1,4-benzothiazepin-8-yl]methyl}amino)-2-oxoethyl]glycine trifluoroacetate salt] | 619
CCCC[C@]1(CC)CS(=O)(=O)c2cc(CN[C@H](C(=O)O)[C@@H](C)O)c(OC)cc2[C@@H](c2ccccc2)N1 [Example 56, N-{[(3R,5R)-3-butyl-3-ethyl-7-(methyloxy)-1,1-dioxido-5-phenyl-2,3,4,5-tetrahydro-1,4-benzothiazepin-8-yl]methyl}-L-threonine ammonium salt] | 425
CCCC[C@]1(CC)CS(=O)(=O)c2cc(C(=O)NCS(=O)(=O)O)c(OC)cc2[C@@H](c2ccccc2)N1 [Example 2, ({[(3R,5R)-3-butyl-3-ethyl-7-(methyloxy)-1,1-dioxido-5-phenyl-2,3,4,5-tetrahydro-1,4-benzothiazepin-8-yl]carbonyl}amino)methanesulfonic acid] | 11
